Measured values taken from ChEMBL document CHEMBL1201862, “PubChem BioAssay data set” (2004).
Active and inactive are the calls of the source.

How the values were obtained:
[1] = molecular target: T1, Delta-type opioid receptor (Homo sapiens, UniProt P41143); test: HTS Image-Based Screen for Agonists of the DOR Receptor. [Related pubchem assays (depositor defined):AID1777, AID1786, AID2133]; type: functional
[2] = molecular target: T2, Mu-type opioid receptor (Homo sapiens, UniProt P35372); test: HTS Image-Based Screen for Agonists of the MOR Receptor. [Related pubchem assays (depositor defined):AID1777, AID1785, AID1786, AID2133]; type: functional
[3] = molecular target: T3, Kappa-type opioid receptor (Homo sapiens, UniProt P41145); type: functional
[4] = molecular target: T3, Kappa-type opioid receptor; type: functional; remark: listed apart in the source
[5] = molecular target: T1, Delta-type opioid receptor; test: delta opioid receptor blockers – image-based, SAR follow-up (AID 2357); type: functional
[6] = molecular target: T3, Kappa-type opioid receptor; test: kappa opioid receptor blockers, image-based, SAR follow-up (AID 2348); type: functional
[7] = molecular target: T1, Delta-type opioid receptor; test: DOR agonists, SAR follow-up, image-based (AID 2370); type: functional
[8] = molecular target: T1, Delta-type opioid receptor; test: HTS Image-Based Screen for Antagonists of the DOR Receptor. [Related pubchem assays (depositor defined):AID1777, AID1785, AID1786, AID2133]; type: functional
[9] = molecular target: T2, Mu-type opioid receptor; test: mu opioid receptor blockers – image-based, SAR follow-up (AID 2420); type: functional;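 further: compounds added before stimulation of receptor with agonist DAMGO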
[10] = viability of uninfected HEp-2 cells – cell-based, HTS, cytotoxicity control for RSV inhibitor project, dose response (AID 2410); type: functional; conditions: human respiratory syncytial virus
[11] = molecular target: T2, Mu-type opioid receptor; test: mu opioid receptor activators, image-based, SAR follow-up (AID 2352); type: functional
[12] = molecular target: Mucolipin-3 (Homo sapiens, UniProt Q8TDD5); test: Dose response cell-based high-throughput screening assay for agonists of the transient receptor potential channel ML3 (TRPML3). [Related pubchem assays: 1526, 1424, 1448 ]; type: functional
[13] = molecular target: Ion channel NompC (Danio rerio, UniProt Q7T1G6); test: Fluorescence counterscreen assay for TRPML3 agonists: dose response cell-based high-throughput screening assay to identify agonists of the transient receptor potential channel N1 (TRPN1). [Related pubchem assays: 1526, 1424, 1448 ]; type: functional
[14] = molecular target: NACHT, LRR and PYD domains-containing protein 3 (Homo sapiens, UniProt Q96P20); test: NALP3 inhibitors in yeast, dose response, luminescent (AID 488799); type: functional
[15] = molecular target: Eukaryotic translation initiation factor 4E (Mus musculus, UniProt P63073); test: blockers of eIF4G binding by eIF4E – biochemical, TR-FRET, dose response (AID 855); type: functional;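 further: potency for disrupting eIF4E binding to eIF4GI seen as loss of FRET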
[16] = molecular target: T4, Polyadenylate-binding protein 1 (Homo sapiens, UniProt P11940); test: MLLE domain peptide-binding blockers, IC50 – biochemical, fluorescence polarization, FITC-PAM2 peptide, dose response (AID 602259); type: functional; conditions: read-out: IC50_Mean
[17] = viability loss in THP-1 monocytes – THP-1 cells, cytotoxicity control for Vif-APOBEC3G degradation inhibitor project, dose response (AID 1117359); type: functional; conditions: THP-1
[18] = molecular target: T5, Hexokinase HKDC1 (Homo sapiens, UniProt Q2TB90); test: inhibition of HKDC1 glucose phosphorylation – biochemical, W721R variant, dose response (AID 504729); type: functional
T5 sequence (Q2TB90 whole entry): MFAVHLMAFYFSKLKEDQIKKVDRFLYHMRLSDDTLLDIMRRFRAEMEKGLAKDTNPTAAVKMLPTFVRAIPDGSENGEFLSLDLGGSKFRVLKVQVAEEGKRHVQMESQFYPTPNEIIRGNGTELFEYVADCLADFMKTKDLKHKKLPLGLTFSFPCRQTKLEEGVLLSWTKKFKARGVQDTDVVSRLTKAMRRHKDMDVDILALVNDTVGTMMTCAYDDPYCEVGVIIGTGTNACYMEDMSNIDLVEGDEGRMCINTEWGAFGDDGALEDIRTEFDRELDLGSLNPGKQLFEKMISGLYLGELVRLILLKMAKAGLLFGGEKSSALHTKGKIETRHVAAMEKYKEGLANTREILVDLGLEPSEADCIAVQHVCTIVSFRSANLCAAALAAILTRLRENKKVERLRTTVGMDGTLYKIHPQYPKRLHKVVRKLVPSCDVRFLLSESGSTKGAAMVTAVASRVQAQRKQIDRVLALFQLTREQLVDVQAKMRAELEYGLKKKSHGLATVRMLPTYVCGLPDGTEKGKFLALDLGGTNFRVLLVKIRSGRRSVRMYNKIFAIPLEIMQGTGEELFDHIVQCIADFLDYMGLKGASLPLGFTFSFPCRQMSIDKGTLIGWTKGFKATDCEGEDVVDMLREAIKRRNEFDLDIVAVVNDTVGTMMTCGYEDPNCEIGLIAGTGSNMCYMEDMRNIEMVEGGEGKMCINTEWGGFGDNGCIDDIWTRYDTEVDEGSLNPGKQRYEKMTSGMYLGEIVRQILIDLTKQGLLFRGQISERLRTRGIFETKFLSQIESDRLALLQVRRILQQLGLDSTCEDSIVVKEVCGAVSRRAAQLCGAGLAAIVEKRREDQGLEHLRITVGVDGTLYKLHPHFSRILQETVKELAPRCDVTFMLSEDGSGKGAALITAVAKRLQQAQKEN

[19] = molecular target: T4, Polyadenylate-binding protein 1; test: MLLE binding blockers, Cy5 peptide tracer – biochemical, fluorescence polarization, Cy5-PAM2 peptide, secondary, miRNA deadenylation inhibitor project, dose response (AID 602260); type: functional; conditions: read-out: IC50_Mean
[20] = molecular target: Induced myeloid leukemia cell differentiation protein Mcl-1 (Homo sapiens, UniProt Q07820); type: functional
[21] = molecular target: Beta-galactosidase (Escherichia coli, UniProt Q8VNN2); test: detection-enzyme interference by beta-gal modulators – biochemical, E. coli enzyme, set 3, artefact control for CCR6 antagonist project, dose response (AID 504712); type: functional
[22] = molecular target: C-C chemokine receptor type 6 (Homo sapiens, UniProt P51684); test: antagonism of CCR6 beta-arrestin recruitment – cell-based, luminescent beta-arrestin readout, dose response (AID 504728); type: functional
[23] = THP-1 cell cytotoxicity, dose response, cytotoxicity control for non-replicating M. tuberculosis project (AID 489025); type: functional
[24] = HGIII-sPLA2 enzyme inhibition potency – biochemical, QFRET, IC50, dose response (AID 743457);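 further: green fluorescence rise as the enzyme cleaves BODIPY PC-A2 in liposomes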
[25] = molecular target: Glucose-6-phosphate 1-dehydrogenase (Homo sapiens, UniProt P11413); test: inhibition of Homo sapiens G6PD, dose series – biochemical, fluorescence, selectivity assay for P. falciparum G6PD inhibitor project, dose response (AID 504792); type: functional
Glucose-6-phosphate 1-dehydrogenase, sequence (P11413 whole entry): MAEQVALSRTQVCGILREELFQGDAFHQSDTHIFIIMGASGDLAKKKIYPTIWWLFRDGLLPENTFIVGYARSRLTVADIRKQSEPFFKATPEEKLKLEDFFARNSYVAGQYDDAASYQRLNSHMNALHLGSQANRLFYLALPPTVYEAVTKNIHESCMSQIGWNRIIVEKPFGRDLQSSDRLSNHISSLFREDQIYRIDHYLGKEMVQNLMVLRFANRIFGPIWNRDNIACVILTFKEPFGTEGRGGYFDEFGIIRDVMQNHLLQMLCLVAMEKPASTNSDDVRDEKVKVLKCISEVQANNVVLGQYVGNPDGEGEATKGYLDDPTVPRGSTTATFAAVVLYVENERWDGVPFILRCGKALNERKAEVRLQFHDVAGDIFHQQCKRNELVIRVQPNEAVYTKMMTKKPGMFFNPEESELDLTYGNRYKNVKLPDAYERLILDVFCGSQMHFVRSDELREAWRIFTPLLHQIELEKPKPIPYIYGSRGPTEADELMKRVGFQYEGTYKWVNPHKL

T2 sequence (P35372 whole entry): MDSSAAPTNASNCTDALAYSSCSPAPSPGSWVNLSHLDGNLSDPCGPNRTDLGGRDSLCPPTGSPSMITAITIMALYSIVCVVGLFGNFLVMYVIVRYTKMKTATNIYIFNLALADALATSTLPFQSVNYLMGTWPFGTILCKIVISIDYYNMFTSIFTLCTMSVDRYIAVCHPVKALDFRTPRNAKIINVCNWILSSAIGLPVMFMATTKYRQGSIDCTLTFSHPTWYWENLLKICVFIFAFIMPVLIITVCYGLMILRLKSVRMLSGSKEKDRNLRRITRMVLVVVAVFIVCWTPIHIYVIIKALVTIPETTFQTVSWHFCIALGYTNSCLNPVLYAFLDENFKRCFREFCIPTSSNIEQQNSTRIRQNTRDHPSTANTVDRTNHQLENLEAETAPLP
T1 sequence (P41143 whole entry): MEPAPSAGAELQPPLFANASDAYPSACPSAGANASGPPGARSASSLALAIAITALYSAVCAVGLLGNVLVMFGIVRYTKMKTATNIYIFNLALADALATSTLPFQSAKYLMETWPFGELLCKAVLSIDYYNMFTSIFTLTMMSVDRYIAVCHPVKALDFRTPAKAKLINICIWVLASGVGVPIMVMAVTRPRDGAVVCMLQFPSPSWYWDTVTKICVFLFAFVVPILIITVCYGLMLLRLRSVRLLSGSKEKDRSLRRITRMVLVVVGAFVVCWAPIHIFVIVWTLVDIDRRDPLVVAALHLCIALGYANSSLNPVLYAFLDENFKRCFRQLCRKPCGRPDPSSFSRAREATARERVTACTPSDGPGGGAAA
T3 sequence (P41145 whole entry): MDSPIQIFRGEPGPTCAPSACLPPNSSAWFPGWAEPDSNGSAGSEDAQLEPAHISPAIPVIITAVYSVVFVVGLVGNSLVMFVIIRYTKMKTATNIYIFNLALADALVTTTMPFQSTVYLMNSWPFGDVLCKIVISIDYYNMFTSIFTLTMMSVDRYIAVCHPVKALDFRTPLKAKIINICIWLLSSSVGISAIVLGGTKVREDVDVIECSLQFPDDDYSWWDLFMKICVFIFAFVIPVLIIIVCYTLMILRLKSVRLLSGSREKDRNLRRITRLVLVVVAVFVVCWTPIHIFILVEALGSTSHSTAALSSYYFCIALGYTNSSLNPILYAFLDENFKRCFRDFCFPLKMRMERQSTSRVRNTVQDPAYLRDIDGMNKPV
T4 sequence (P11940 whole entry, the tested form may be a part): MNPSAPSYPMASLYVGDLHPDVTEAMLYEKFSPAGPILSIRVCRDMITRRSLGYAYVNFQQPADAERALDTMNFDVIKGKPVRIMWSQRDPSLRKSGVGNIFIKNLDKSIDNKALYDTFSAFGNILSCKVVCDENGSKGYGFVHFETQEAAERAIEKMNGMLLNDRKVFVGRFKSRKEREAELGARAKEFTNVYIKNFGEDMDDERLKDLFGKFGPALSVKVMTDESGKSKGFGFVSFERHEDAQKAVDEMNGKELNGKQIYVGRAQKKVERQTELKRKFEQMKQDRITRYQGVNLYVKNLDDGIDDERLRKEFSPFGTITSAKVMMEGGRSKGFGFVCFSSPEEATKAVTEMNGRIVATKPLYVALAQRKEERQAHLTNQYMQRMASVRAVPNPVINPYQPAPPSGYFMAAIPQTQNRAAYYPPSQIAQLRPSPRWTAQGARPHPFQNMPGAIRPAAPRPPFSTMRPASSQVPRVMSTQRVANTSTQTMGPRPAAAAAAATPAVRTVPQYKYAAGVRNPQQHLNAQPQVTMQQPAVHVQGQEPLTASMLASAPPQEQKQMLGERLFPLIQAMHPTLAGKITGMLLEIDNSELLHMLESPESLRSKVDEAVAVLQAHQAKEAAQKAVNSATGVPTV
C-C chemokine receptor type 6, sequence (P51684 whole entry): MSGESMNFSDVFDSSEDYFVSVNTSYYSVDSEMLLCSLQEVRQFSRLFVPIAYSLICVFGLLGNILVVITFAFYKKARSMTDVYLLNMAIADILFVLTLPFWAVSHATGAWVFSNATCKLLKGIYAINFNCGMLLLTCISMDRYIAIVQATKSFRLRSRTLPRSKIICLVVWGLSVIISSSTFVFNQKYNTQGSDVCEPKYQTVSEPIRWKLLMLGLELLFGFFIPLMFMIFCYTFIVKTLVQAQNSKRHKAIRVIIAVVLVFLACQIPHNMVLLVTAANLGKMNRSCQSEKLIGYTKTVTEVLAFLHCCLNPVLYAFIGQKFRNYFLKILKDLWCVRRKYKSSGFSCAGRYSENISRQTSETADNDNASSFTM
Beta-galactosidase, sequence (Q8VNN2 whole entry): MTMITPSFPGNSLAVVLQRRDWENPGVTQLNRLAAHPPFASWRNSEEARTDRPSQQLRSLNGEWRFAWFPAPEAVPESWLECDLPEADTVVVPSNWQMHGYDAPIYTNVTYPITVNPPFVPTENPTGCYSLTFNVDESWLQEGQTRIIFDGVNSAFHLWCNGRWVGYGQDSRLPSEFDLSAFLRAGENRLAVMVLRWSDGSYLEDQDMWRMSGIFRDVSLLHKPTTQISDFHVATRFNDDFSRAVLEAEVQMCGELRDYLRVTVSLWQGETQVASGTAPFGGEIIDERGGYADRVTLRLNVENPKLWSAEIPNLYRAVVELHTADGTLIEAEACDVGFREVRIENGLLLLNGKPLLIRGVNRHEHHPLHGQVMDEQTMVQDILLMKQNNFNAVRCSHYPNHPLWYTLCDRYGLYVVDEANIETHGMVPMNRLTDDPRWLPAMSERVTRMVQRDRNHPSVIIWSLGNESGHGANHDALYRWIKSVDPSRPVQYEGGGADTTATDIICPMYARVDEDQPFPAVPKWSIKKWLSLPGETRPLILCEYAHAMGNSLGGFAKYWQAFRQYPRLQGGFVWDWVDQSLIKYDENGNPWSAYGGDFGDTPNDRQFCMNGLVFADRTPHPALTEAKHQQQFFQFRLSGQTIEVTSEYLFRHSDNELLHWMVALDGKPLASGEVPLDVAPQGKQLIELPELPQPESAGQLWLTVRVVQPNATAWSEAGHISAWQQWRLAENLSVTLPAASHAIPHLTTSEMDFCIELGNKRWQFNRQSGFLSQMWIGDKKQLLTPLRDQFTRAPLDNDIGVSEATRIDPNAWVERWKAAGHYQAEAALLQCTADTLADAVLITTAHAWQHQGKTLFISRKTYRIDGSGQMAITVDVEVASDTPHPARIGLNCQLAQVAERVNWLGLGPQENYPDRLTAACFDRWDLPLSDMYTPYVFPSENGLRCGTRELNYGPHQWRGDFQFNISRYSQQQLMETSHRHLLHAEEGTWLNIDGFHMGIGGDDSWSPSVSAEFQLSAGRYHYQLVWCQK
Mucolipin-3, sequence (Q8TDD5 whole entry): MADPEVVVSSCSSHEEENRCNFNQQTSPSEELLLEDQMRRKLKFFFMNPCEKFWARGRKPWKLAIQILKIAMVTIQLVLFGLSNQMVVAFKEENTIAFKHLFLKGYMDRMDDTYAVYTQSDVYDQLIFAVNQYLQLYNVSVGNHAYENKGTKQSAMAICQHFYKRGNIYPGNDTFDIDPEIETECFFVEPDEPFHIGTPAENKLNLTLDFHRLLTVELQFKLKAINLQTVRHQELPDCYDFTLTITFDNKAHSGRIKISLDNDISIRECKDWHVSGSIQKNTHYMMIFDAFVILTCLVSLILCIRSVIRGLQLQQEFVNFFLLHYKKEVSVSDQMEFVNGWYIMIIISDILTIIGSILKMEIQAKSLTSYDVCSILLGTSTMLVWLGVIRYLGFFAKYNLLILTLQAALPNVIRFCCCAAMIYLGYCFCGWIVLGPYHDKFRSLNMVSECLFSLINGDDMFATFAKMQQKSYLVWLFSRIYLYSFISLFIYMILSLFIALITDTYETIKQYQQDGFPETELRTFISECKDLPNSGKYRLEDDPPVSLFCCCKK
Eukaryotic translation initiation factor 4E, sequence (P63073 whole entry, the tested form may be a part): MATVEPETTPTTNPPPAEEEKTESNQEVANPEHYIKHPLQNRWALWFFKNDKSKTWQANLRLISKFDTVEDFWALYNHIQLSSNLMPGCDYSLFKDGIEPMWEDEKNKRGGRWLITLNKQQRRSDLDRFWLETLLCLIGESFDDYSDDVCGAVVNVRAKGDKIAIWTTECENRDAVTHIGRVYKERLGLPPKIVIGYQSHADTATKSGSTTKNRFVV
Induced myeloid leukemia cell differentiation protein Mcl-1, sequence (Q07820 whole entry): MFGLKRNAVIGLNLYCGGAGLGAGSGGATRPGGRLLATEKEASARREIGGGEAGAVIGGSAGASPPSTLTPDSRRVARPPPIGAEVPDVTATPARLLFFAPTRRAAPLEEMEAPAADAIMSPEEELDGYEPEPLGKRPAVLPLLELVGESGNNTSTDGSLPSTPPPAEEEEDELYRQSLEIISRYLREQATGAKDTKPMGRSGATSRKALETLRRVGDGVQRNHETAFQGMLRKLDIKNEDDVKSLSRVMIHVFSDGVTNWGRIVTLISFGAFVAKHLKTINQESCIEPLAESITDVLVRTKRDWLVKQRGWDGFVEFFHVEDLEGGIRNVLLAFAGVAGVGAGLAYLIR

For Clc1cccc(CSc2nnc(-c3ccccn3)n2Cc2ccco2)c1, the EC50 [1] was > 32 µM (inactive), the EC50 [2] was > 32 µM (inactive) and the EC50 [3] was 8.35 µM. For the same molecule, the EC50 [4] was 5.6 µM, the IC50 [5] was > 32 µM (inactive) and the IC50 [6] was > 32 µM (inactive). For the same molecule, the EC50 [7] was > 32 µM (inactive), the IC50 [8] was > 32 µM (inactive) and the IC50 [9] was > 32 µM (inactive). The CC50 [10] was 15.1 µM (active) and the EC50 [11] was > 32 µM (inactive).

In the case of CN(CCOc1ccccc1)c1ccc(S(=O)(=O)N2CCCCC2)cn1, the EC50 [12] is reported as 2.58 µM (active), the EC50 [13] is reported as > 29.9 µM (not active) and the IC50 [14] is reported as > 100 µM (inactive).

In the case of CNCc1ccccc1Sc1cc(O)ccc1O, the IC50 [15] is reported as > 64 µM (inactive), the IC50 [16] is reported as > 66 µM (inactive) and the CC50 [17] is reported as > 40 µM (active). For the same molecule, the IC50 [18] was 3.35 µM (active), the IC50 [19] was > 66 µM (inactive) and the IC50 [20] was 4.5 µM (active). For the same molecule, the IC50 [21] was > 66.6 µM (inactive), the IC50 [22] was 23.5 µM (inactive) and the CC50 [23] was 38.8 µM (active). For the same molecule, the IC50 [24] was > 122 µM (inactive) and the IC50 [25] was 26.9 µM (inactive).
